Assays:
Type in all cases: cell-based, mouse
mESC [1] = assay: Western blot protein expression (densitometry); details: mESC 24 h
Experimental: (§1) Total protein cell extracts were obtained upon sonication in RIPA buffer (EpiShearTM Probe sonicator, Active Motif [La Hulpe, Belgium]). Protein concentrations were determined using the DC Protein Assay (BioRad [Munich, Germany]). Extracts were supplemented with Roti®-Load buffer (Carl Roth GmbH [Karlsruhe, Germany]) followed by heating (95 °C for 5 min). 20 µg of protein was separated by SDS-PAGE and transferred onto nitrocellulose membrane. After blocking (5% non-fat milk in TBS/0.1% Tween 20 or 5% BSA in TBS/0.1% Tween 20) (1 h, RT) membrane was incubated with primary antibodies (1:500–5000; overnight, 4 °C). After washing with TBS/0.1% Tween 20, peroxidase-conjugated secondary antibody (1:2000) was added (2 h, RT) and bands were visualized using ChemiDoxTM Touch imaging system (BioRad, Munich, Germany).

[2] = test system: EC d4 (endothelial progenitor cells); assay: Western blot protein expression (densitometry); details: EC d4 48 h
Experimental: as §1

[3] = test system: EC d6 (endothelial-like cells); assay: Western blot protein expression (densitometry); details: EC d6 24 h
Experimental: as §1

EC d4 = assay: DNA fiber spreading assay; details: EC d4 48 h; HU: 5 mM, 1 h
Experimental: (§2) To analyze DNA replication fork progression, the DNA fiber spreading assay was performed. Briefly, cells were pulse-labeled with 20 µM CldU (20 min, 37 °C, 5% C0_2) and immediately afterwards with 200 µM IdU (20 min, 37 °C, 5% C02). Cell suspension was applied onto glass slides followed by cell lysis (0.5% SDS, 200 mM Tris–HCl, 50 mM EDTA). After incubation (6 min, RT), slides were tilted upwards to stretch the fibers, dried 6 min lying horizontally flat and fixed (5 min, RT) in methanol: acetic acid (3:1). After drying (7 min, lying horizontally flat) slides were stored overnight in 70% ethanol (4 °C). The next day samples were incubated in 100% methanol (5 min, RT) followed by denaturation in 2.5 M HCl (1 h, RT) and blocking (5% BSA in PBS, 1 h, 37 °C). DNA Fibers were stained with rat anti-BrdU (1:40) for CldU detection and mouse anti-BrdU (1:70) for IdU detection (in 0.5% BSA/PBS; 1 h, RT). After washing (0.05% Tween 20 in PBS and PBS) incubation with secondary antibodies anti-rat 488 (1:400) and anti-mouse 555 (1:250) was performed (1 h, RT, 0.5% BSA in PBS). Following washing with 0.05% Tween 20 in PBS and PBS, the slides were mounted with Fluoroshield (Sigma [Steinheim, Germany]). DNA fibers were analyzed microscopically (Olympus BX43 fluorescence microscope [40 objective]). The length of CldU (green) and IdU (red) tract was measured using ImageJ software, analyzing 200 fibers per experimental condition.

mESC [4] = assay: DNA fiber spreading assay; details: mESC 24 h; HU: 5 mM, 1 h
Experimental: as §2

EC d6 = assay: DNA fiber spreading assay; details: EC d6 24 h; HU: 5 mM, 1 h
Experimental: as §2

COc1cc([C@@H]2c3cc4c(cc3[C@@H](O[C@@H]3O[C@@H]5CO[C@@H](C)O[C@H]5[C@H](O)[C@H]3O)[C@H]3COC(=O)[C@H]23)OCO4)cc(OC)c1O [Eto, etoposide]
CHK1 protein (mESC [1]; Eto lane of blot Fig 5D - B02): 0.9 Fold of mESC | RAD51 protein (mESC [1]; Eto lane of blot Fig 5D - B02): 1.9 Fold of mESC | p-CHK2 protein (mESC [1]; Eto lane of blot Fig 5D - B02): 0.8 Fold of mESC | p-KAP1 protein (mESC [1]; Eto lane of blot Fig 5D - B02): 49.01 Fold of mESC | p-RPA32 protein (mESC [1]; Eto lane of blot Fig 5D - B02): 0.7 Fold of mESC | p-p53 protein (mESC [1]; Eto lane of blot Fig 5D - B02): 2.1 Fold of mESC | CHK1 protein (mESC [1]; Eto lane of blot Fig 5D - Dox): 2.4 Fold of mESC | RAD51 protein (mESC [1]; Eto lane of blot Fig 5D - Dox): 1.9 Fold of mESC | p-CHK2 protein (mESC [1]; Eto lane of blot Fig 5D - Dox): 1.6 Fold of mESC | p-KAP1 protein (mESC [1]; Eto lane of blot Fig 5D - Dox): 29.7 Fold of mESC | p-RPA32 protein (mESC [1]; Eto lane of blot Fig 5D - Dox): 1.6 Fold of mESC | p-p53 protein (mESC [1]; Eto lane of blot Fig 5D - Dox): 6.9 Fold of mESC | CHK1 protein (mESC [1]; Eto lane of blot Fig 5D - EST): 1.3 Fold of mESC | RAD51 protein (mESC [1]; Eto lane of blot Fig 5D - EST): 2.4 Fold of mESC | p-CHK2 protein (mESC [1]; Eto lane of blot Fig 5D - EST): 1.3 Fold of mESC | p-KAP1 protein (mESC [1]; Eto lane of blot Fig 5D - EST): 36.8 Fold of mESC | p-RPA32 protein (mESC [1]; Eto lane of blot Fig 5D - EST): 1.0 Fold of mESC | p-p53 protein (mESC [1]; Eto lane of blot Fig 5D - EST): 3.7 Fold of mESC | CHK1 protein (mESC [1]; Fig 4H, Eto, Dox 1, B02, EST): 1.0 Fold of mESC | p-ATR protein (mESC [1]; Fig 4H, Eto, Dox 1, B02, EST): 1.6 Fold of mESC | p-CHK1 protein (mESC [1]; Fig 4H, Eto, Dox 1, B02, EST): 2.3 Fold of mESC | p-RPA32 protein (mESC [1]; Fig 4H, Eto, Dox 1, B02, EST): 1.2 Fold of mESC | p-p53 protein (mESC [1]; Fig 4H, Eto, Dox 1, B02, EST): 6.1 Fold of mESC | CHK1 protein ([2]; Eto lane of blot Fig 5D - B02): 0.7 Fold of mESC | RAD51 protein ([2]; Eto lane of blot Fig 5D - B02): 1.0 Fold of mESC | p-CHK2 protein ([2]; Eto lane of blot Fig 5D - B02): 0.4 Fold of mESC | p-KAP1 protein ([2]; Eto lane of blot Fig 5D - B02): 0.0 Fold of mESC | p-RPA32 protein ([2]; Eto lane of blot Fig 5D - B02): 0.4 Fold of mESC | p-p53 protein ([2]; Eto lane of blot Fig 5D - B02): 1.7 Fold of mESC | CHK1 protein ([2]; Eto lane of blot Fig 5D - Dox): 1.6 Fold of mESC | RAD51 protein ([2]; Eto lane of blot Fig 5D - Dox): 0.1 Fold of mESC | p-CHK2 protein ([2]; Eto lane of blot Fig 5D - Dox): 0.5 Fold of mESC | p-KAP1 protein ([2]; Eto lane of blot Fig 5D - Dox): 0.0 Fold of mESC | p-RPA32 protein ([2]; Eto lane of blot Fig 5D - Dox): 0.5 Fold of mESC | p-p53 protein ([2]; Eto lane of blot Fig 5D - Dox): 4.8 Fold of mESC | CHK1 protein ([2]; Eto lane of blot Fig 5D - EST): 0.7 Fold of mESC | RAD51 protein ([2]; Eto lane of blot Fig 5D - EST): 1.2 Fold of mESC | p-CHK2 protein ([2]; Eto lane of blot Fig 5D - EST): 1.2 Fold of mESC | p-KAP1 protein ([2]; Eto lane of blot Fig 5D - EST): 0.0 Fold of mESC | p-RPA32 protein ([2]; Eto lane of blot Fig 5D - EST): 0.4 Fold of mESC | p-p53 protein ([2]; Eto lane of blot Fig 5D - EST): 3.0 Fold of mESC | CHK1 protein ([3]; Eto lane of blot Fig 5D - B02): 0.37 Fold of mESC | RAD51 protein ([3]; Eto lane of blot Fig 5D - B02): 0.38 Fold of mESC | p-CHK2 protein ([3]; Eto lane of blot Fig 5D - B02): 0.04 Fold of mESC | p-KAP1 protein ([3]; Eto lane of blot Fig 5D - B02): 0.00 Fold of mESC | p-RPA32 protein ([3]; Eto lane of blot Fig 5D - B02): 0.04 Fold of mESC | p-p53 protein ([3]; Eto lane of blot Fig 5D - B02): 1.45 Fold of mESC | CHK1 protein ([3]; Eto lane of blot Fig 5D - Dox): 0.6 Fold of mESC | RAD51 protein ([3]; Eto lane of blot Fig 5D - Dox): 0.8 Fold of mESC | p-CHK2 protein ([3]; Eto lane of blot Fig 5D - Dox): 0.2 Fold of mESC | p-KAP1 protein ([3]; Eto lane of blot Fig 5D - Dox): 0.0 Fold of mESC | p-RPA32 protein ([3]; Eto lane of blot Fig 5D - Dox): 0.1 Fold of mESC | p-p53 protein ([3]; Eto lane of blot Fig 5D - Dox): 3.7 Fold of mESC | CHK1 protein ([3]; Eto lane of blot Fig 5D - EST): 0.1 Fold of mESC | RAD51 protein ([3]; Eto lane of blot Fig 5D - EST): 0.5 Fold of mESC | p-CHK2 protein ([3]; Eto lane of blot Fig 5D - EST): 0.4 Fold of mESC | p-KAP1 protein ([3]; Eto lane of blot Fig 5D - EST): 0.0 Fold of mESC | p-RPA32 protein ([3]; Eto lane of blot Fig 5D - EST): < 0.1 Fold of mESC | p-p53 protein ([3]; Eto lane of blot Fig 5D - EST): 2.0 Fold of mESC

NC(=O)NO [HU, Hydroxyurea]
replication fork progression (EC d4): decreased replication fork speed | replication fork progression (mESC [4]): decreased replication fork speed | replication fork progression (EC d6): decreased replication fork speed

Source: article PMC13308190, “Endothelial progenitor cell susceptibility to DNA damaging and DDR-modulating compounds determines endothelial differentiation accuracy” (Stem Cell Research & Therapy, 2026)
